The source of these data is patent EP4745137A1 (Gluetacs Therapeutics (Shanghai) Co., Ltd., priority 2023, dated 2025).

In one experiment the test system is NCI-H1975. Put plainly: Tumor cell proliferation inhibition (CellTiter-Meiluncell Luminescent Cell Viability Assay), NCI-H1975. Conditions: Homo sapiens, NCI-H1975, 96 h, read-out: inhibitory activity (IC50, nM) against tumor cells proliferation, H1975.
The test system of experiment [1] is Human acute T lymphocytic leukemia cells (Molt-4). Put plainly: Tumor cell proliferation inhibition (CellTiter-Meiluncell Luminescent Cell Viability Assay), Molt-4. Conditions: MOLT-4, 96 h, read-out: inhibitory activity (IC50, nM) against tumor cells proliferation, Molt 4.
The next experiment concerns the target T1, WEE1 (Homo sapiens, UniProt P30291+Q96SW2).
T1 construct: endogenous in cells; host or cells: hPBMCs (Milecell Biotechnologies)
Put plainly: Western-blot assay of substrate protein degradation in hPBMCs, WEE1. It is filed as cell-based. The settings on record: 24 hours of compound treatment, compounds tested at 50 nM and 500 nM (concentration of the table not stated).

The target of a further experiment is T2, GSPT1 (Homo sapiens, UniProt P15170+Q96SW2).
T2 construct: endogenous in cells; host or cells: hPBMCs (Milecell Biotechnologies)
Put plainly: Western-blot assay of substrate protein degradation in hPBMCs, GSPT1. In kind it is cell-based. The settings on record: 24 hours of compound treatment, compounds tested at 50 nM and 500 nM (concentration of the table not stated).

The target of the next experiment is T3, CK1α (Homo sapiens, UniProt P48729+Q96SW2).
T3 construct: endogenous in cells; host or cells: hPBMCs (Milecell Biotechnologies)
Put plainly: Western-blot assay of substrate protein degradation in hPBMCs, CK1α. In kind it is cell-based. Conditions: 24 hours of compound treatment, compounds tested at 50 nM and 500 nM (concentration of the table not stated).

The next experiment relates to MM.1R. Put plainly: Tumor cell proliferation inhibition (CellTiter-Meiluncell Luminescent Cell Viability Assay), MM.1R. The settings on record: Homo sapiens, 96 h, read-out: inhibitory activity (IC50, nM) against tumor cells proliferation, MM.1R.
In experiment [2] the test system is Human breast cancer cells (MDA-MB-231). Put plainly: Tumor cell proliferation inhibition (CellTiter-Meiluncell Luminescent Cell Viability Assay), MDA-MB-231. Conditions: MDA-MB-231, 96 h, read-out: inhibitory activity (IC50, nM) against tumor cells proliferation, MDA-MB-231.
The next experiment deals with T4, IKZF3 (Homo sapiens, UniProt Q96SW2+Q9UKT9).
T4 construct: endogenous in cells; host or cells: hPBMCs (Milecell Biotechnologies)
Put plainly: Western-blot assay of substrate protein degradation in hPBMCs, IKZF3. It is filed as cell-based. The settings on record: 24 hours of compound treatment, compounds tested at 50 nM and 500 nM (concentration of the table not stated).

Another experiment addresses T5, IKZF1 (Homo sapiens, UniProt Q13422+Q96SW2).
T5 construct: endogenous in cells; host or cells: hPBMCs (Milecell Biotechnologies)
Put plainly: Western-blot assay of substrate protein degradation in hPBMCs, IKZF1. The settings on record: 24 hours of compound treatment, compounds tested at 50 nM and 500 nM (concentration of the table not stated). It is filed as cell-based.

In a further experiment the test system is Jurkat. Put plainly: Tumor cell proliferation inhibition (CellTiter-Meiluncell Luminescent Cell Viability Assay), Jurkat. The settings on record: Homo sapiens, 96 h, read-out: inhibitory activity (IC50, nM) against tumor cells proliferation, Jurkat.
The subject of another experiment is CAL-62. Put plainly: Tumor cell proliferation inhibition (CellTiter-Meiluncell Luminescent Cell Viability Assay), CAL-62. Conditions: Homo sapiens, CAL-62, 96 h, read-out: inhibitory activity (IC50, nM) against tumor cells proliferation, CAL-62.
The next experiment deals with T6, IKZF2 (Homo sapiens, UniProt Q96SW2+Q9UKS7).
T6 construct: endogenous in cells; host or cells: hPBMCs (Milecell Biotechnologies)
Put plainly: Western-blot assay of substrate protein degradation in hPBMCs, IKZF2. It is filed as cell-based. The settings on record: 24 hours of compound treatment, compounds tested at 50 nM and 500 nM (concentration of the table not stated).

The target in experiment [3] is T7, human Cereblon WT GST-tagged protein (Homo sapiens, UniProt Q96SW2).
T7 construct: purchased CISBIO 64BDCRBNPEH
Put plainly: CRBN-binding affinity by HTRF (CEREBLON BINDING kit). The settings on record: HTRF inhibitory activity, CEREBLON BINDING kit; read-out: HTRF IC50. A general note: Time-resolved FRET reads energy transfer from a long-lived donor to a nearby acceptor.

T6 sequence (Q9UKS7 whole entry): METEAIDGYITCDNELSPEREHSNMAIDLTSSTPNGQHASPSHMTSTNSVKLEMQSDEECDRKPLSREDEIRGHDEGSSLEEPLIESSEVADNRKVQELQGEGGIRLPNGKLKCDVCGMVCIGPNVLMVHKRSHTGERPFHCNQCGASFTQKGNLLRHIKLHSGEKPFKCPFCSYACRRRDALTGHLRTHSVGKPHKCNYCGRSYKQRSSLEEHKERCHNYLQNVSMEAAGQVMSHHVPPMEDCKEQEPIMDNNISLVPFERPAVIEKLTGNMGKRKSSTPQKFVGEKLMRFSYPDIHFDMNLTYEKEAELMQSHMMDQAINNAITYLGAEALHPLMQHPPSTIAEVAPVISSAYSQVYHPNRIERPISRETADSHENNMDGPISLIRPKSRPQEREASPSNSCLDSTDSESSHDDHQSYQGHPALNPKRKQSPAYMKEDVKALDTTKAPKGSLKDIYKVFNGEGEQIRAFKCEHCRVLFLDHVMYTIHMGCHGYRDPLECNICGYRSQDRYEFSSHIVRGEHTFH
T6 sequence (Q96SW2 whole entry): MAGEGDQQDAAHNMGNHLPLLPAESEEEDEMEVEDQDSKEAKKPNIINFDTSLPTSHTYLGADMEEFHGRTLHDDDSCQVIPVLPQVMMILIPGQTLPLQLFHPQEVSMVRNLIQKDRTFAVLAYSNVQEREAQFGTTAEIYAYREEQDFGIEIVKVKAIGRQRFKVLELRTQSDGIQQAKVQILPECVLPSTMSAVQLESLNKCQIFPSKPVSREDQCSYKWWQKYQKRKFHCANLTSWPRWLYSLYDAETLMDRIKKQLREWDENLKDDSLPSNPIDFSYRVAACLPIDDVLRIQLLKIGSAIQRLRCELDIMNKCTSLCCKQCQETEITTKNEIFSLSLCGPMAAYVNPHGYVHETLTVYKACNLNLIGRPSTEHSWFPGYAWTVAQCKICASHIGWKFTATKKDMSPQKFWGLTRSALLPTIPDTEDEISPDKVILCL
T6 sequence (Q16531 whole entry partner): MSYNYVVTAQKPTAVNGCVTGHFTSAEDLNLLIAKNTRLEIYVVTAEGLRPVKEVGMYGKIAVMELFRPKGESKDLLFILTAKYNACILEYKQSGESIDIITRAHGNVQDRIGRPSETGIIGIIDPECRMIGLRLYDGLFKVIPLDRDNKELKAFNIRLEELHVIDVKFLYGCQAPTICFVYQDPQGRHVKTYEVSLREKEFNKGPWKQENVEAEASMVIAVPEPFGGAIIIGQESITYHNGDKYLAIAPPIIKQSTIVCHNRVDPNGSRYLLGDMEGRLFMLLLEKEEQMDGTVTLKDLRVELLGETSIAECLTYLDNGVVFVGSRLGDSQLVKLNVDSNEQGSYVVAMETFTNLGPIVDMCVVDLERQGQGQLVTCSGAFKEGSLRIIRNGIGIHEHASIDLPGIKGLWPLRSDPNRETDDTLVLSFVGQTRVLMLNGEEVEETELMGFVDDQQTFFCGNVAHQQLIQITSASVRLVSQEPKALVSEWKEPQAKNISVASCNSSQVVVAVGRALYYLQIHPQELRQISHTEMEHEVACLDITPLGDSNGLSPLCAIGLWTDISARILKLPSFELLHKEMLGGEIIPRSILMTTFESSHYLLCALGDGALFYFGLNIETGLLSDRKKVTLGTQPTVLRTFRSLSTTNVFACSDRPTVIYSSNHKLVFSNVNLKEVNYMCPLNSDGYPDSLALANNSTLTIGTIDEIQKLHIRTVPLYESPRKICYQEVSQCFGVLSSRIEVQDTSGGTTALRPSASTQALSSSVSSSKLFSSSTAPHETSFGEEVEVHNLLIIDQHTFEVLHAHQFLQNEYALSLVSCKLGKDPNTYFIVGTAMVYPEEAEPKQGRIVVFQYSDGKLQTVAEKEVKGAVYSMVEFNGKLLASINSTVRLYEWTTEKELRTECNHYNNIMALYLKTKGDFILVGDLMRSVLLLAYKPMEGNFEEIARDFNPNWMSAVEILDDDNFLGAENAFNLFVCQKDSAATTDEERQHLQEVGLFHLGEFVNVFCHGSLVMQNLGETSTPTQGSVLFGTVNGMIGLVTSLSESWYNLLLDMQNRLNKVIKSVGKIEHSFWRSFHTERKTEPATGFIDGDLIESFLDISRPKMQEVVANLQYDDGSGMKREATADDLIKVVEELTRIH
T2 sequence (P15170 whole entry): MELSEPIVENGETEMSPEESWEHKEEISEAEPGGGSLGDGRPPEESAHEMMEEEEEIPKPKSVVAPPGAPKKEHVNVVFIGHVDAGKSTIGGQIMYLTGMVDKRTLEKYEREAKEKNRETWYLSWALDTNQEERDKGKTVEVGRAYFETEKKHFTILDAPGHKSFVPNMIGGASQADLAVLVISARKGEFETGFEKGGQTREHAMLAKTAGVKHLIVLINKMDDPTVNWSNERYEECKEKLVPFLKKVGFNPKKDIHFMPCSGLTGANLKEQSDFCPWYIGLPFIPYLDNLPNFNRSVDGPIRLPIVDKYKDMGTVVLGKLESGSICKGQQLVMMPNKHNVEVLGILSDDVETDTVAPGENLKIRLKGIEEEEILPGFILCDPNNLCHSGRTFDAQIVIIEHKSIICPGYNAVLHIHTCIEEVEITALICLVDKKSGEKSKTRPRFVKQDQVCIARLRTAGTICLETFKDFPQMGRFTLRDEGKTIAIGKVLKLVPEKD
T2 sequence (Q96SW2 whole entry): as the sequence (Q96SW2 whole entry) above
T2 sequence (Q16531 whole entry partner): as the sequence (Q16531 whole entry partner) above
T7 sequence (Q96SW2 whole entry): as the sequence (Q96SW2 whole entry) above
T3 sequence (P48729 whole entry): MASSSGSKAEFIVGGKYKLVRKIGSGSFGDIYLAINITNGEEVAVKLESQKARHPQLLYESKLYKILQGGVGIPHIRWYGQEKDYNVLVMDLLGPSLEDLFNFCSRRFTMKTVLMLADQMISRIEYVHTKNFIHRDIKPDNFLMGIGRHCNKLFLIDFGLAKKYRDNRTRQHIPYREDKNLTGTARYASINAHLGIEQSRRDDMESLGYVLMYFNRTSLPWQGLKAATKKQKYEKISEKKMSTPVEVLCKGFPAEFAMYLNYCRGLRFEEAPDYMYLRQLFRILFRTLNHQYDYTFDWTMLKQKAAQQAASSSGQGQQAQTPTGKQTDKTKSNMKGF
T3 sequence (Q96SW2 whole entry): as the sequence (Q96SW2 whole entry) above
T3 sequence (Q16531 whole entry partner): as the sequence (Q16531 whole entry partner) above
T5 sequence (Q13422 whole entry): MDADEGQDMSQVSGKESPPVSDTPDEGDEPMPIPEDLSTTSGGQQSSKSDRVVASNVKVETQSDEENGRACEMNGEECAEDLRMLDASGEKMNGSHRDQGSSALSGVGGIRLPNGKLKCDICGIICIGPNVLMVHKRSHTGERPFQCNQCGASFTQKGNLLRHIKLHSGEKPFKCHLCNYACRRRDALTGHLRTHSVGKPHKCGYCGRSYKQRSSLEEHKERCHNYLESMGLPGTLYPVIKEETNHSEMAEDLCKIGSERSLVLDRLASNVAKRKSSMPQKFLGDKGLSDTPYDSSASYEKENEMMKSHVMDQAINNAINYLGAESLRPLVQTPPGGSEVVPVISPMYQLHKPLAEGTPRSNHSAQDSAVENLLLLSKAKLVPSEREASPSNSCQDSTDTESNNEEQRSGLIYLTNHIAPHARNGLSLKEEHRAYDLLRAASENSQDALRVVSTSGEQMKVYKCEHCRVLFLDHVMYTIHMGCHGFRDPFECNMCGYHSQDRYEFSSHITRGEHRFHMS
T5 sequence (Q96SW2 whole entry): as the sequence (Q96SW2 whole entry) above
T5 sequence (Q16531 whole entry partner): as the sequence (Q16531 whole entry partner) above
T4 sequence (Q9UKT9 whole entry): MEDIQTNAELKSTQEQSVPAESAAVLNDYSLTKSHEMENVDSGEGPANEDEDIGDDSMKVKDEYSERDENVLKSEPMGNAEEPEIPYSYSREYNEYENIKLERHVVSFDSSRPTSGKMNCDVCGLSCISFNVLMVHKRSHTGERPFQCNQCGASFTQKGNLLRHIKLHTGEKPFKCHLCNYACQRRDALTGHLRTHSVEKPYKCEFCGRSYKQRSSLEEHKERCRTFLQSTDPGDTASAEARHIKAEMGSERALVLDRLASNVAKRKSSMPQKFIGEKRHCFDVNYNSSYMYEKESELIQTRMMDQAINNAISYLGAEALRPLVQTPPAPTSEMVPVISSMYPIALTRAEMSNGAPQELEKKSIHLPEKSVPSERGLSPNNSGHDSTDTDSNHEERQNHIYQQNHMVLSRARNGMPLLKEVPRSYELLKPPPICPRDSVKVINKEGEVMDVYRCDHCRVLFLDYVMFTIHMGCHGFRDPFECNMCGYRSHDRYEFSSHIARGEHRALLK
T4 sequence (Q96SW2 whole entry): as the sequence (Q96SW2 whole entry) above
T4 sequence (Q16531 whole entry partner): as the sequence (Q16531 whole entry partner) above

With `O=C1CCC(N2Cc3cc(CN4CCC(c5cccc(F)c5F)CC4)ccc3C2=O)C(=O)N1` (stereo not shown) [GT-04552, 3-(5-((4-(2,3-difluorophenyl)piperidin-1-yl)methyl)-1-oxoisoindolin-2-yl)piperidine-2,6-dione], the IC50 with NCI-H1975 was 10 to 50 nM; in [1] it was 1 to 5 nM; with MM.1R, 5 to 10 nM; in experiment [2] it was 50 to 100 nM; with Jurkat, 1 to 5 nM; in the experiment on CAL-62, 5 to 10 nM. For the same compound, the IC50 in [3] is 1000 to 1500 nM. Also, the “Weel substrate protein remaining %” value on WEE1 is given as “A (0% ≤ substrate protein remaining % ≤ 80%)”. In addition, the “GSPT1 substrate protein remaining %” value at GSPT1 is listed as “A (0% ≤ substrate protein remaining % ≤ 80%)”. Further, the “CK1a substrate protein remaining %” value at CK1α is listed as “A (0% ≤ substrate protein remaining % ≤ 80%)”. Also, the “IKZF3 substrate protein remaining %” value at IKZF3 was “A (0% ≤ substrate protein remaining % ≤ 80%)”. Besides, the “IKZF 1 substrate protein remaining %” value at IKZF1 was “A (0% ≤ substrate protein remaining % ≤ 80%)”. Further, the “IKZF2 substrate protein remaining %” value on IKZF2 is “A (0% ≤ substrate protein remaining % ≤ 80%)”.

With `O=C1CCC(N2Cc3cc(CN4CC=C(c5cncc(Cl)c5Cl)CC4)ccc3C2=O)C(=O)N1` (stereo not shown) [GT-04558, 3-(5-((4,5-dichloro-3',6'-dihydro-[3,4'-bipyridin]-1'(2'H)-yl)methyl)-1-oxoisoindolin-2-yl)piperidine-2,6-dione], the IC50 in the experiment on NCI-H1975 was 5 to 10 nM; in experiment [1], 1 to 5 nM; in the experiment with MM.1R, less than 1 nM; in experiment [2], 5 to 10 nM; with Jurkat, less than 1 nM; in the experiment with CAL-62 it was 1 to 5 nM. Further, in experiment [3], the IC50 is less than 500 nM. The “Weel substrate protein remaining %” value at WEE1 was “A (0% ≤ substrate protein remaining % ≤ 80%)”. In addition, the “GSPT1 substrate protein remaining %” value at GSPT1 is “A (0% ≤ substrate protein remaining % ≤ 80%)”. The “CK1a substrate protein remaining %” value on CK1α is recorded as “A (0% ≤ substrate protein remaining % ≤ 80%)”. In addition, the “IKZF3 substrate protein remaining %” value on IKZF3 is reported as “A (0% ≤ substrate protein remaining % ≤ 80%)”. The “IKZF 1 substrate protein remaining %” value on IKZF1 was “A (0% ≤ substrate protein remaining % ≤ 80%)”. Moreover, the “IKZF2 substrate protein remaining %” value on IKZF2 is given as “A (0% ≤ substrate protein remaining % ≤ 80%)”.

Regarding `O=C1CCC(N2Cc3cc(CN4CC=C(c5cccc(F)c5Cl)CC4)ccc3C2=O)C(=O)N1` (stereo not shown) [GT-04554, 3-(5-((4-(2-chloro-3-fluorophenyl)-3,6-dihydropyridin-1(2H)-yl)methyl)-1-oxoisoindolin-2-yl)piperidine-2,6-dione], the IC50 in the experiment with NCI-H1975 is 1 to 5 nM; in experiment [1], less than 1 nM; in the experiment with MM.1R it was less than 1 nM; in experiment [2], 1 to 5 nM; in the experiment with Jurkat, less than 1 nM; in the experiment with CAL-62, less than 1 nM. Further, the IC50 in experiment [3] was in the range of 500 to 1000 nM. In addition, the “Weel substrate protein remaining %” value on WEE1 is listed as “A (0% ≤ substrate protein remaining % ≤ 80%)”. In addition, the “GSPT1 substrate protein remaining %” value at GSPT1 was “A (0% ≤ substrate protein remaining % ≤ 80%)”. The “CK1a substrate protein remaining %” value on CK1α was “A (0% ≤ substrate protein remaining % ≤ 80%)”. The “IKZF3 substrate protein remaining %” value on IKZF3 is “A (0% ≤ substrate protein remaining % ≤ 80%)”. Besides, the “IKZF 1 substrate protein remaining %” value on IKZF1 is on record as “A (0% ≤ substrate protein remaining % ≤ 80%)”. Besides, on IKZF2, the “IKZF2 substrate protein remaining %” value is given as “A (0% ≤ substrate protein remaining % ≤ 80%)”.

In the case of `O=C1CCC(N2Cc3cc(CN4CCC(c5cccc(F)c5Cl)CC4)ccc3C2=O)C(=O)N1` (stereo not shown) [GT-04553, 3-(5-((4-(2-chloro-3-fluorophenyl)piperidin-1-yl)methyl)-1-oxoisoindolin-2-yl)piperidine-2,6-dione], the IC50 with NCI-H1975 was in the range of 10 to 50 nM; in experiment [1], 1 to 5 nM; in the experiment with MM.1R it was 1 to 5 nM; in [2], 10 to 50 nM; with Jurkat it was 1 to 5 nM; in the experiment with CAL-62, 1 to 5 nM. For the same compound, the IC50 in experiment [3] lay in the range of 1000 to 1500 nM. In addition, at WEE1, the “Weel substrate protein remaining %” value was “A (0% ≤ substrate protein remaining % ≤ 80%)”. In addition, the “GSPT1 substrate protein remaining %” value at GSPT1 is “A (0% ≤ substrate protein remaining % ≤ 80%)”. In addition, the “CK1a substrate protein remaining %” value at CK1α is given as “A (0% ≤ substrate protein remaining % ≤ 80%)”. The “IKZF3 substrate protein remaining %” value on IKZF3 was “A (0% ≤ substrate protein remaining % ≤ 80%)”. Further, at IKZF1, the “IKZF 1 substrate protein remaining %” value is “A (0% ≤ substrate protein remaining % ≤ 80%)”. The “IKZF2 substrate protein remaining %” value at IKZF2 was “A (0% ≤ substrate protein remaining % ≤ 80%)”.

For `O=C1CCC(N2Cc3cc(CN4CCN(c5ccc(F)cn5)CC4)ccc3C2=O)C(=O)N1` (stereo not shown) [GT-04531, 3-(5-((4-(5-fluoropyridin-2-yl)piperazin-1-yl)methyl)-1-oxoisoindolin-2-yl)piperidine-2,6-dione], the IC50 with NCI-H1975 is 100 to 500 nM; in experiment [1], 10 to 50 nM; in the experiment on MM.1R, 10 to 50 nM; in experiment [2], 100 to 500 nM; in the experiment on Jurkat, 5 to 10 nM; in the experiment with CAL-62, 10 to 50 nM. For the same compound, the IC50 in experiment [3] was 500 to 1000 nM. Also, the “Weel substrate protein remaining %” value at WEE1 is given as “A (0% ≤ substrate protein remaining % ≤ 80%)”. Moreover, at GSPT1, the “GSPT1 substrate protein remaining %” value is “A (0% ≤ substrate protein remaining % ≤ 80%)”. Moreover, the “CK1a substrate protein remaining %” value on CK1α is given as “A (0% ≤ substrate protein remaining % ≤ 80%)”. Also, the “IKZF3 substrate protein remaining %” value at IKZF3 is “A (0% ≤ substrate protein remaining % ≤ 80%)”. Also, on IKZF1, the “IKZF 1 substrate protein remaining %” value is reported as “A (0% ≤ substrate protein remaining % ≤ 80%)”. For the same compound, on IKZF2, the “IKZF2 substrate protein remaining %” value is reported as “A (0% ≤ substrate protein remaining % ≤ 80%)”.

As to `O=C1CCC(N2Cc3cc(CN4CC=C(c5ccnc(F)c5F)CC4)ccc3C2=O)C(=O)N1` (stereo not shown) [GT-04555, 3-(5-((2',3'-difluoro-3,6-dihydro-[4,4'-bipyridin]-1(2H)-yl)methyl)-1-oxoisoindolin-2-yl)piperidine-2,6-dione], the IC50 lay in the range of 100 to 500 nM with NCI-H1975; 10 to 50 nM in experiment [1]; 5 to 10 nM with MM.1R; 500 to 1000 nM in experiment [2]; 5 to 10 nM in the experiment with Jurkat; 10 to 50 nM in the experiment with CAL-62. Besides, the IC50 in [3] was 500 to 1000 nM. Further, at WEE1, the “Weel substrate protein remaining %” value is reported as “A (0% ≤ substrate protein remaining % ≤ 80%)”. Also, the “GSPT1 substrate protein remaining %” value at GSPT1 is recorded as “A (0% ≤ substrate protein remaining % ≤ 80%)”. In addition, the “CK1a substrate protein remaining %” value on CK1α was “A (0% ≤ substrate protein remaining % ≤ 80%)”. The “IKZF3 substrate protein remaining %” value at IKZF3 is given as “A (0% ≤ substrate protein remaining % ≤ 80%)”. For the same compound, at IKZF1, the “IKZF 1 substrate protein remaining %” value was “A (0% ≤ substrate protein remaining % ≤ 80%)”. At IKZF2, the “IKZF2 substrate protein remaining %” value is “A (0% ≤ substrate protein remaining % ≤ 80%)”.

Take `O=C1CCC(N2Cc3cc(CN4CCN(c5cc(Cl)c(Cl)cn5)CC4)ccc3C2=O)C(=O)N1` (stereo not shown) [GT-04533, 3-(5-((4-(4,5-dichloropyridin-2-yl)piperazin-1-yl)methyl)-1-oxoisoindolin-2-yl)piperidine-2,6-dione]: the IC50 in the experiment on NCI-H1975 lay in the range of 50 to 100 nM; in [1] it was 1 to 5 nM; in the experiment on MM.1R it was 1 to 5 nM; in experiment [2], 50 to 100 nM; in the experiment on Jurkat, 1 to 5 nM; with CAL-62, 5 to 10 nM. In addition, in experiment [3], the IC50 lay in the range of 500 to 1000 nM. Besides, on WEE1, the “Weel substrate protein remaining %” value is given as “A (0% ≤ substrate protein remaining % ≤ 80%)”. Moreover, the “GSPT1 substrate protein remaining %” value on GSPT1 is “A (0% ≤ substrate protein remaining % ≤ 80%)”. The “CK1a substrate protein remaining %” value on CK1α is recorded as “A (0% ≤ substrate protein remaining % ≤ 80%)”. Also, at IKZF3, the “IKZF3 substrate protein remaining %” value is “A (0% ≤ substrate protein remaining % ≤ 80%)”. Moreover, the “IKZF 1 substrate protein remaining %” value on IKZF1 is recorded as “A (0% ≤ substrate protein remaining % ≤ 80%)”. For the same compound, the “IKZF2 substrate protein remaining %” value at IKZF2 is given as “A (0% ≤ substrate protein remaining % ≤ 80%)”.
